# Test results taken from patent US5747327A, “Phospholipase D gene originated from plant” (priority 1993, dated 1998).
# Legend:
# [1] = target: T1, rice bran phospholipase D (PLD), Oryza sativa variety Koshihikari, eluted solution Mono Q 2nd-II (Oryza sativa, UniProt Q43007); assay: Km of purified rice bran PLD, fraction Mono Q 2nd-II (choline oxidase method); format: biochemical; settings: Mono Q 2nd-II fraction; phosphatidylcholine as the substrate, choline quantified by choline oxidase method
# T1 construct: processed N-terminus (residues 1-46 removed according to earlier note), precursor 812 aa
# T1 sequence (Q43007 47-812 P139S): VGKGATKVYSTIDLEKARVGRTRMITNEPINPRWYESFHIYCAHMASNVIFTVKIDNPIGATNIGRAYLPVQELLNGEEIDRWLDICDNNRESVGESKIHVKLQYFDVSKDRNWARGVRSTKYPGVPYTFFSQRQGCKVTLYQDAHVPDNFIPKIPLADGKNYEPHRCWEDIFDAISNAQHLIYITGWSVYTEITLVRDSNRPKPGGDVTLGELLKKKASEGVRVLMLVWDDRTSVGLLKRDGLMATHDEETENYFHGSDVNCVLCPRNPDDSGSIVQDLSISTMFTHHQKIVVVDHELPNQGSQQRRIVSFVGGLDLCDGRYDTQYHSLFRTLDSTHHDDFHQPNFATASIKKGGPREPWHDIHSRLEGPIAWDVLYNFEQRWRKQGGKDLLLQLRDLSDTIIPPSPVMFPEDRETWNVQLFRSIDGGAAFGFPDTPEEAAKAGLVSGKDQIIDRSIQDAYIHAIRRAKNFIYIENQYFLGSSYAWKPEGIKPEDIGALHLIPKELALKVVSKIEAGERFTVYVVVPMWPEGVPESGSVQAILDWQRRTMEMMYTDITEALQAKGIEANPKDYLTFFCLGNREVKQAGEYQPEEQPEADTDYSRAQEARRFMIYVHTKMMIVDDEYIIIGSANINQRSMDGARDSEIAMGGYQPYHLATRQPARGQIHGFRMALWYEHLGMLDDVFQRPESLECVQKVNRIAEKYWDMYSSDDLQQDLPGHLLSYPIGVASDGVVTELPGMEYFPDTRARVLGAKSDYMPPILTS
# Method: (§1) For the purification, a reference relating to the purification of rice bran PLD (Takano et al., J. Jpn. Soc. Food Sci. Technol., 34, 8-13 (1987)) was referred. The enzyme activity was measured by using phosphatidylcholine as the substrate and by quantifying the choline generated by the enzyme reaction by the choline oxidase method (Imamura et al., J. Biochem. 83, 677-680 (1978)). The enzyme reaction, however, was stopped by heat treatment at 95° C. for 5 minutes.
# (§2) The two fractions were analyzed for properties of the enzymes contained therein. […] The pH stability means the range in which decrease in activity was not observed after leaving the enzyme to stand at 25° C. for 30 minutes. The temperature stability was measured by measuring remaining activity after leaving the enzyme to stand at 4° C., 25° C., 37° C. or 50° C. for 30 minutes. The substrate specificity was measured at a substrate concentration of 5 mM and is expressed as a relative activity taking the enzyme activity to phosphatidylcholine as 100.
# [2] = target: T2, rice bran phospholipase D (PLD), Oryza sativa variety Koshihikari, eluted solution Mono Q 2nd-I (Oryza sativa, UniProt Q43007); assay: Km of purified rice bran PLD, fraction Mono Q 2nd-I (choline oxidase method); format: biochemical; settings: Mono Q 2nd-I fraction; phosphatidylcholine as the substrate, choline quantified by choline oxidase method
# T2 construct: processed N-terminus (residues 1-46 removed according to earlier note), precursor 812 aa
# T2 sequence (Q43007 47-812 P139S): as above
# Method: as §1, §2
substance,measurement,setting,value
phosphatidylcholine,Km,[1],290 µM
same,Km,[2],290 µM
